Series [1] concerns histidine-requiring Salmonella typhimurium TA100 and TA98 strains. As to conditions: cited from earlier work.
Series [2] concerns neurofibrillary tangle in the brain section of an Alzheimer disease patient. The series is described as follows: Staining test on a brain section of an Alzheimer disease patient: neurofibrillary tangle. The series is classed as binding, human. As to conditions: 100 μM solution in 50% ethanol, 10 minutes, paraffin brain section. The source says:
(§1) (1) Brain specimens at the temporal lobe and the hippocampus of patients to which a definitive diagnosis of Alzheimer disease had been given, and those of normal senile persons were used. The specimens were given by our coworker, Fukushimura Hospital, Longevity Medicine Institute, and we were given their consent of use of the specimens for our study purpose by the bereaved of the patients (Fukushimura Hospital Ethical Review Board Approval No. 20).
(§2) (2) The paraffin-embedded brain tissue was cut Into slices having a thickness of 6 μm or 8 μm, and extended and dried on a slide. The paraffin brain section was steeped for paraffin removal in xylene twice for 10 minutes, 100% ethanol twice for 5 minutes, 90% ethanol for 5 minutes and running water for 10 minutes in that order.
(§3) (3) For pretreatment prior to the staining treatment with a compound of the invention, the sections were steeped for autofluorescence removal with lipofuscin. First, the paraffin-removed sections were dipped in 0.25% KMnO4 solution for 20 minutes. These were washed with PBS, twice for 2 minutes, then dipped in 0.1% K2S2O5/oxalic acid solution for about 5 seconds, and then further washed with PBS, three times for 2 minutes.
(4) About 150 μl of a 100 μM solution of a compound of the invention dissolved in 50% ethanol was dropwise applied to the section and reacted for 10 minutes. After dipped five times in tap water, the section was entrapped with Fluor Save Reagent (Calbiochem), and analyzed through microscopy with a fluorescence microscope (Nikon, Eclipse 80i). The images were taken with a digital camera (Nikon Dxm 1200F or Photometrics' Cool SNAP ES). […]

In series [3] the target is T1, amyloid β protein in the brain section of an Alzheimer disease patient (Homo sapiens, UniProt P05067).
T1 construct: from tissue; host or cells: paraffin-embedded temporal lobe and hippocampus of Alzheimer disease patients
Kind of series: Staining test on a brain section of an Alzheimer disease patient: amyloid β protein. The series is classed as binding.
Description: as §1, §2, §3
(4) About 150 μl of a 100 μM solution of a compound of the invention dissolved in 50% ethanol was dropwise applied to the section and reacted for 10 minutes. After dipped five times in tap water, the section was entrapped with Fluor Save Reagent (Calbiochem), and analyzed through microscopy with a fluorescence microscope (Nikon, Eclipse 80i). The images were taken with a digital camera (Nikon Dxm 1200F or Photometrics' Cool SNAP ES).
(1) After paraffin removal, the sections were washed in distilled water, twice for 2 minutes. Then, using ImmunoPen, the tissue was marked with a surrounding line; about 150 μl of formic acid was dropwise applied to the section and statically left at room temperature for 5 minutes. The section was washed with tap water for 5 minutes, then dipped in cold PBS-Tween 20 for 2 minutes, and thereafter about 150 μl of 0.05% trypsin solution was dropwise applied to it and reacted at 37° C. for 15 minutes.
(2) In an ice bath, this was washed with cold PBS-Tween 20, twice for 5 minutes, and then 2 drops of blocking serum were applied to it and reacted at 37° C. for 30 minutes. Excess water was removed, and then about 150 μl of a specific antibody to amyloid β protein, 6F/3D (by DAKO, 1/50 dilution) was dropwise applied to it, and reacted at 37° C. for 1 hour.
(3) Further, this was washed with cold PBS-Tween 20, 5 times for 2 minutes, and then 2 drops of an anti-mouse IgG (H+L), goat, biotin-binding solution were applied to it and reacted at 37° C. for 1 hour. Then, this was washed with cold PBS-Tween 20, three times for 2 minutes, and 2 drops of an ABC solution (streptoavidin-biotin-peroxidase composite solution) were applied to it, and left statically as such for 30 minutes. Again this was washed with cold PBS-Tween 20, three times for 2 minutes, and then about 150 μl of a DAB solution (10 mg of DAB was dissolved in 20 ml of 0.05 mol/liter tris-HCl buffer, and just before use, 100 μl of 3% hydrogen peroxide water was added to it) was dropwise applied to it for sufficiently staining it. Then, this was washed with distilled water for 1 minute to stop the reaction, then entrapped and observed through microscopy.

Series [4] can be described thus: Brain Permeability Test Through HPLC. The series is classed as in vivo. As to conditions: mice, 2 minutes after intravenous administration. As to the method:
A compound of the invention was intravenously administered to mice, and tested for its in-vivo brain permeability in the mice.
(1) Slc:ICR mice (by Nippon SLC) (body weight, 30 to 40 g; n=3) were used.
(2) A test compound was dissolved in a mixture of 5% Tween 80-5% ethyl alcohol-5% 1 N HCl-physiological saline water, and injected into the test mouse via its tail vein. Two minutes after the administration, the blood was collected from the test mouse under ether anesthesia via its abdominal aorta using a heparin-steeped syringe, and the brain material was collected from it.
(3) After collected, the blood was centrifuged at 4° C. and 14,000 rpm for 10 minutes, and the supernatant was stored at −80° C. as plasma. After collected, the brain material (including the cerebellum) was stored at −80° C.
(4) 0.3 ml of acetonitrile was added to 0.1 ml of the plasma, then vortexed, and centrifuged at 4° C. and under 10,000 G for 5 minutes. After centrifuged, 0.2 ml of the resulting supernatant was transferred into Mini-Uniprep (Whatman), then 0.2 ml of 20 mM phosphate buffer was added to it and filtered. 0.2 ml of the resulting filtrate was analyzed through HPLC (Shiseido Nanospace SI-2; pump, 3001; UV-VIS detector, 3002; column thermostat, 3004; fluorescence detector, 3013).
(5) 2 ml of methanol was added to the brain, homogenized, and centrifuged at 4° C. and 3000 or 4000 rpm for 10 minutes. After centrifuged, 500 μl of the resulting supernatant was diluted 10-fold with 20 mM phosphate buffer. (i) 2 to 3 ml of acetonitrile, (ii) 2 to 5 ml of methanol and (iii) 4 to 6 ml of ultra-pure water were led through a cartridge for solid-phase extraction (J. T. Baker Speedisk) in that order, and the 10-fold diluted supernatant solution was led through it. Via an empty syringe, air was applied to the cartridge for solid-phase extraction, two or three times to remove water, and then this was eluted with about 500 μl of acetonitrile or methanol, and the eluate was diluted 2-fold with 20 mM phosphate buffer. 0.2 ml of the resulting solution was analyzed through HPLC.
(6) The test compound content in the plasma and in the brain was determined relative to the dose of the compound (% ID (injected dose)/g or ml).

In series [5] the test system is histidine-requiring Salmonella typhimurium TA100 and TA98 strains. The series is described as follows: Mutagenicity Test (reverse mutation test). The series is classed as cell-based. As to the method: In view of their use, it is desirable that the compounds of the invention have no mutagenicity or have little mutagenicity to a level causing no problem. For investigating the gene mutagenesis of the compounds of the invention, herein carried out was a reverse mutation test with histidine-requiring Salmonella typhimurium TA100 and TA98 strains. Two tests were carried out. One is a test for dose determination test; and the other is for mutagenicity.
The test methods and the mutagenicity of the compounds of the invention are mentioned below. In the dose determination test, six doses of 0.160, 0.800, 4.00, 20.0, 100 and 500 μg/plate (common ratio 5) were tried.
As a result of the dose determination test, when the mutagenicity of the test compound was admitted, then the actual test for mutagenicity was carried out, using the dose capable of giving an accurate dose-reaction curve. When no mutagenicity of the test compound was admitted in the dose determination test and when the growth inhibition of the test cells was admitted therein, then the dose to present the growth inhibition was taken as the maximum dose; and when the growth inhibition was not admitted, then a dose of 5000 μg/plate was taken as the maximum dose. With that, the actual test for mutagenicity was carried out on the level of 6 doses (common ratio 2).
First, a test compound was dissolved or suspended in DMSO, then diluted in order to prepare test compound liquids having a varying concentration.
100 μl of a test compound liquid or a negative control (DMSO) solution was put into a sterilized test tube. Then, for the case in the absence of a metabolic activation system (−S9mix), 500 μl of 0.1 mol/liter sodium-phosphate buffer (pH 7.4) was added to it; and for the case in the presence of a metabolic activation system (+S9mix), 500 μl of S9mix was added to it.
Next, 100 μl of the test strain suspension that had been cultivated with shaking at 37° C. for 8 hours was added to it, and preincubated in a shaking thermostat at 37° C. for 20 minutes. After shaken, 2 ml of top agar was added to it, and the contents were mixed.
Next, the mixture was poured onto a minimal glucose agar plate medium (plate) and spread uniformly thereon, then the top agar was solidified, and the plate was transferred into a thermostat and incubated at 37° C. for 48 hours.
Then, the number of the colonies grown through reverse mutation was counted.
For counting it, […]. After area correction and miss-counting correction, the number of the colonies was computed. When the colony analyzer could not be used owing to the deposition of the test compound or the cell growth inhibition, then the number of the colonies was counted with the naked eye.
In case where the number of the colonies through reverse mutation increased two times or more that of the negative control and where the dose dependency or the reproducibility of the increase was admitted, then the tested sample was decided as positive. When the sample was is decided as positive, then the relative activity that indicates the relative comparative value of the intensity of the mutagenicity of the test compound was obtained according to the following formula: Relative Activity={(number of colonies per plate having the concentration)−(number of colonies per negative control plate)}/the value of concentration (mg/plate).

Another series is described as follows: Acute Toxicity Test. The series is classed as in vivo. The settings on record: Crj:CD1 male mice, tail vein, observed for 7 days. As to the method:
The compounds of the invention were tested for their acute toxicity through intravenous administration thereof to mice. Four Crj:CD1 male mice formed one test group, and some test groups of those mice were used (the mean body weight of the mice of each group was from 31 to 32 g). A test compound was dissolved in a mixture of 1 N HCl, polyethylene glycol-400 and distilled water, or dissolved in DMSO, and then diluted with distilled water. This was administered to each mouse via its tail vein.

For another series, the target named is T2, Amyloid β protein 1-40 (Homo sapiens, UniProt P05067).
T2 construct: Amyloid β protein 1-40 (bought from Peptide Laboratory); purchased Peptide Laboratory
Kind of series: Fluorescence Congo Red Method. The series is classed as binding. As to conditions: 1 h, compound 10 μM, amyloid β protein 5 μM. As to the method: Next described is a screening method for the compounds of the invention. Some of the compounds of the invention could not be screened according to a Thioflavin T method, since their fluorescence wavelength overlaps with that of Thioflavin T. For such compounds, the following novel screening method was introduced. (1) Amyloid β protein 1-40 (bought from Peptide Laboratory) was dissolved in a phosphate buffer (pH 7.4) and left at 37° C. for 4 days. (2) 50 μl of Congo red dissolved in the buffer was applied to a 96-well microplate (final concentration, 0.1, 0.3, 1 μM). (3) 100 μl of amyloid β protein was added to it (final concentration 5 μM), and left as such for 30 minutes. (4) 100 μl of a test compound dissolved in the buffer was added to it (final concentration, 10 μM, and left as such for 60 minutes. (5) Using a fluorescence microplate reader (Spectra Max 190 by Molecular Device), the sample was analyzed at the optimum exciting wavelength and the test wavelength that had been previously determined. (6) The fluorescence intensity in the presence of the test compound, amyloid β protein and Congo red is represented by A; that in the presence of the test compound and Congo red is by B; that in the presence of the test compound and amyloid β protein is by C; and that in the presence of only the test compound is by D. The β structure recognition of the test compound is computed according to the following formula: β structure recognition (%) of test compound={(A−B)/(C−D)}×100. (7) It may be said that the test compound having a higher β structure recognition percentage may have higher binding specificity to amyloid β protein.

Here are results for four compounds from patent publication US7910579B2, “Benzoxazole derivatives” (Tohoku University, priority 2006, dated 2011).

Where two headings read alike, the source gives them in different places.

T2 sequence (P05067 672-711): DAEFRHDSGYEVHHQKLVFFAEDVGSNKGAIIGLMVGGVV
T1 sequence (P05067 672-713 limits assumed): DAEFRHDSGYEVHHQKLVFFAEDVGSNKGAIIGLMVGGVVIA

Turning to `CC(=C(C#N)C#N)c1ccc2cc(N(C)CCF)ccc2c1` [FDDNP], in series [1], the “Relative Activity in the absence of S9Mix” value was 3,564,960 and the “Relative Activity in the presence of S9Mix” value is listed as “minus”.

With `CN(C)c1ccc(-c2cn3cc(I)ccc3n2)cc1` [IMPY], the “Relative activity (mutagenicity)” value in series [1] (in the presence of S9mix, literature compounds) is “extremely high”. Further, the “Relative Activity in the presence of S9Mix” value in series [1] (reverse mutation test, +S9mix, data from PCT/JP03/07183 (WO03/106439)) is listed as “minus”. In series [1] (reverse mutation test, -S9mix, data from PCT/JP03/07183 (WO03/106439)), the “Relative Activity in the absence of S9Mix” value is on record as 3,326,100.

Regarding `CN1C=CC(=C/C=C2\C=Nc3ccccc32)C=C1` [THK-185, 3-[2-(1-methyl-1H-pyridin-4-ylidene)-ethylidene]-3H-indole], the “Binding to (staining of) neurofibrillary tangle in the brain section of an Alzheimer disease patient” value in series [2] was “bound to the amyloid β protein and the neurofibrillary tangle”. For the same compound, in series [3] (100 μM solution in 50% ethanol, 10 minutes, paraffin brain section), the “Binding to (staining of) amyloid β protein in the brain section of an Alzheimer disease patient” value was “bound to the amyloid β protein”. The “Specificity to amyloid β” value in series [3] (statement in the description of formulae (II) to (VI)) is listed as “high specificity to amyloid β”.

With `OCC(CF)Oc1ccc2nc(/C=C/c3cnc(N4CCCCC4)s3)oc2c1` (centres unmarked) [THK-713], the “Brain Permeability: Brain” value in series [4] (brain) is reported as 5.9 % ID/g or ml. Besides, the “Brain Permeability: Plasma” value in series [4] (plasma) is on record as 3.29 % ID/g or ml. Besides, the “Relative activity (mutagenicity)” value in series [5] (irrespective of the absence or presence of S9mix) is given as “minus”. In addition, in series [5] (reverse mutation test, +S9mix), the “Relative Activity in the presence of S9Mix” value is “minus”. Moreover, in series [5] (reverse mutation test, -S9mix), the “Relative Activity in the absence of S9Mix” value is listed as “minus”. In the series “Acute Toxicity Test”, the “Maximum Permissible Dose (mg/kg, intravenous administration)” value is recorded as “≧10 mg/kg”. In addition, the activity at 10 µM at Amyloid β protein 1-40 (Congo red 0.1 μM, read-out: Binding Percentage of Compound in the presence of 0.1 μM CR) was found to be 58.2%; on Amyloid β protein 1-40 (Congo red 0.3 μM, read-out: Binding Percentage of Compound in the presence of 0.3 μM CR), 21.2%; at Amyloid β protein 1-40 (Congo red 1 μM, read-out: Binding Percentage of Compound in the presence of 1 μM CR), 3%.
